Measurements published in patent US8188097B2, “Pyrazolo[1,5-A]pyrimidine compounds” (Mitsubishi Tanabe Pharma Corporation, priority 2005, dated 2012).

target: T1, Human CB1 receptor (Homo sapiens, UniProt P21554); experiment: Human CB1 receptor binding assay ([3H]-CP55940 displacement, hCB1/CHO membrane fraction); conditions: human CB1 receptor membrane preparation, 30° C. for 90 minutes
T1 construct: host or cells: CHO cells (hCB1/CHO#C3), membrane fraction prepared in house
Description: Human Cb1 Receptor Binding Assay
(1) Preparation of Human Cb1 Receptor (Membrane Fraction):
Human CB1-expressing cell line: hCB1/CHO#C3 (Euroscreen)
Buffer A: 50 mM tris-HCl (pH 7.5) containing ethylenediaminetetraacetic acid (2.5 mM), MgCl2 (5 mM) and sucrose (200 mM)
The receptor-expressing cells cultivated in the above medium were washed with phosphate buffer (×2) and thereto was added Buffer A (2 mL) under ice-cooling or 4° C. (the following procedures were also carried out at the same temperature). The cells were collected by using a cell-scraper, treated by a microtip-type ultrasonicator for 20 seconds (pulse-on: 2 sec, pulse-off: 1 sec) and centrifuged (500×g, 15 min). The supernatant was separated and centrifuged (43000×g, 60 min). The resultant pellet was suspended in Buffer A and homogenized with a potter-type homogenizer. To the homogenate was added an equal volume of 80% glycerol and stored at −80° C.
(2) Procedure of Cb1 Receptor Binding Assay:
Buffer B: 50 mM tris-HCl (pH 7.5) containing ethylenediaminetetraacetic acid (2.5 mM), MgCl2 (5 mM) and bovine serum albumine (2 mg/mL, fatty acid-free, SIGMA-A7030)
Buffer C: 50 mM tris-HCl (pH 7.5) containing ethylenediaminetetraacetic acid (2.5 mM), MgCl2 (5 mM) and bovine serum albumine (2 mg/mL, SIGMA-A7906)
Coating solution: 0.3% ethyleneimine polymer
Radioligand: [^3H]-CP55940 (30 nM/7992 dpm/mL) prepared by diluting 8.3 μM solution of the radioligand with Buffer B
Each well of the assay plate (96-well, Costar Code#3371) was filled with Buffer B (140 μL), a solution of each test compound in dimethylsulfoxide (20 μL, final concentration: […]), radioligand (20 μL) and membrane preparation (20 μL, 0.5 μg/20 μL) and the mixture was incubated at 30° C. for 90 minutes to proceed the binding reaction. The reaction mixture was harvested to each well of a plate presoaked with the above coating solution (Packard Unifilter GF/B, #6005177). The plate was washed with Buffer C (200 μL×10) and dried at 50° C. for 1 hour and Microscinti 40 (40 μL) was added to each well. The bound radiolabel was quantitated by scintillation counting (Top Count NXT, Packard). IC50 value of each test compound against the radioligand-binding to CB1 receptors was calculated on the basis of the quantitated radiolabel activity by using Graphpad Prism 3.02.

T1 sequence (P21554 whole entry): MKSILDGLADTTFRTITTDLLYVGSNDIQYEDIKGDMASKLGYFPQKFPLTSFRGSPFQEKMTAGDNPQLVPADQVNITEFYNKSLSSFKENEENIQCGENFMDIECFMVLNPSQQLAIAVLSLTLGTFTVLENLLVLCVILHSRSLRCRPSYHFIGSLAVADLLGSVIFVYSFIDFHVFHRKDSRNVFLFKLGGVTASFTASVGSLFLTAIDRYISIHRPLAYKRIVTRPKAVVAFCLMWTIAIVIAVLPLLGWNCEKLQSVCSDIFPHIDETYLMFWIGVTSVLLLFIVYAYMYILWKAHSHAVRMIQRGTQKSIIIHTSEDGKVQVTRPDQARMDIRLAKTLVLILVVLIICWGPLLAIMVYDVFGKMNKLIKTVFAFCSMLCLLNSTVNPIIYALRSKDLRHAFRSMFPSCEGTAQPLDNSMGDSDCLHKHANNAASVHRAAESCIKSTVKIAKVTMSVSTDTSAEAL

Structure (SMILES)	IC50 (nM)
Cc1nn2c(-c3ccc(Cl)s3)c(-c3ccccc3Cl)cnc2c1C(=O)NN(C)c1ccccn1 [Example 410]	+ +
Cc1nn2c(-c3ccc(C(F)(F)F)cc3)c(-c3ccccc3Cl)cnc2c1S(=O)(=O)N1CCCC1 [Example 238, 6-(2-chlorophenyl)-7-(4-trifluoromethylphenyl)-2-methyl-3-(1-pyrrolidinyl)sulfonylpyrazolo[1,5-a]pyrimidine]	+ +
Cc1nn2c(-c3ccc(Cl)cc3F)c(-c3ccccc3C#N)cnc2c1C(=O)NN1CCCC1 [Example 427]	+ +
N#Cc1ccccc1-c1cnc2c(C(=O)NN3CCCCCC3)cnn2c1-c1ccc(Cl)cc1 [Example 252]	+ +
O=C(NC1CSC1)c1cnn2c(-c3ccc(Cl)cc3)c(-c3ccccc3Cl)cnc12 [Example 324]	+ +
Cc1nn2c(-c3ccc(Cl)cc3)c(-c3ccccc3Cl)cnc2c1C(=O)N[C@H]1CCS(=O)(=O)C1 [Example 185]	+ +
CN(NC(=O)c1cnn2c(-c3ccc(Cl)cc3)c(-c3ccccc3C#N)cnc12)c1cccc(Cl)c1 [Example 253]	+ + +
O=C(NC1CCCCC1)c1cnn2c(-c3ccc(Cl)cc3)c(-c3ccccc3Cl)cnc12 [Example 10]	+ +
CN(NC(=O)c1c(C(F)(F)F)nn2c(-c3ccc(Cl)cc3)c(-c3ccccc3Cl)cnc12)c1ccccn1 [Example 309]	+ + +
CN(NC(=O)c1c(N(C)S(C)(=O)=O)nn2c(-c3ccc(Cl)cc3)c(-c3ccccc3Cl)cnc12)c1ccccn1 [Example 452]	+ + +
Cc1nn2c(-c3ccc(Cl)cc3)c(-c3ccccc3Cl)cnc2c1C(=O)CN1CCS(=O)(=O)CC1 [Example 462]	+ +
CC(=O)Nc1nn2c(-c3ccc(Cl)cc3)c(-c3ccccc3Cl)cnc2c1C(=O)NC1CCS(=O)(=O)C1 (stereo not shown) [Example 224]	+ +
CC(C)CNC(=O)c1cnn2c(-c3ccc(C(F)(F)F)cc3)c(-c3ccccc3Cl)cnc12 [Example 287]	+ +
